Laboratory results: patent publication US12318367B2, “Pharmaceutical composition” (ASTRAZENECA AB, priority 2008, dated 2025)

Assays:
[1] = Bioavailability of the free base form from a conventional tablet formulation; details: dog, in vivo, oral, in dogs
[2] = Biopharmaceutical Classification System (BCS) classification; assay type: physicochemical; details: indicates low solubility/dissolution rate and low permeability
[3] = Bioavailability of the salt compared with free base and other salts; assay type: in vivo; details: compared to the free base form of the Agent and other salts
[4] = Dissolution rate of the salt compared with free base and other salts; assay type: physicochemical; details: compared to the free base form of the Agent and other salts

bioavailability [1] | BCS classification [2] | bioavailability [3] | dissolution rate [4] | SMILES
~18% | BCS Class 4 |  |  | Cn1cnc2c(F)c(Nc3ccc(Br)cc3Cl)c(C(=O)NOCCO)cc21 [free-base form of the Agent, 6-(4-bromo-2-chloro-phenylamino)-7-fluoro-3-methyl-3H-benzoimidazole-5-carboxylic acid (2-hydroxy-ethoxy)-amide]
 |  | particularly high | particularly high | Cn1cnc2c(F)c(Nc3ccc(Br)cc3Cl)c(C(=O)NOCCO)cc21 [Agent, 6-(4-bromo-2-chloro-phenylamino)-7-fluoro-3-methyl-3H-benzoimidazole-5-carboxylic acid (2-hydroxy-ethoxy)-amide]
